Consider one compound from patent US11123439B2, “Antibody drug conjugates (ADCS) and antibody prodrug conjugates (APDCS) with enzymatically cleavable groups” (Bayer Pharma Aktiengesellschaft, priority 2015, dated 2021).

The target in the data set is T1, legumain (Homo sapiens, UniProt Q99538).
T1 construct: purchased R&D Systems 2199-CY
T1 sequence (Q99538 18-323 limits assumed): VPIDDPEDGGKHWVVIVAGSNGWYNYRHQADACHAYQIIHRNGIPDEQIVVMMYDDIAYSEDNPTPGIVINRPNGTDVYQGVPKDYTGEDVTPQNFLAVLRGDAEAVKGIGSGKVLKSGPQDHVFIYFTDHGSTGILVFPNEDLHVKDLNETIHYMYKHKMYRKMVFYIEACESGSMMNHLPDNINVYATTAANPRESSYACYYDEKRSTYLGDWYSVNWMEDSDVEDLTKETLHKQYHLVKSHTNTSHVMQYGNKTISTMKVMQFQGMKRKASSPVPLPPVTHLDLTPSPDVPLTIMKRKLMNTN
The data set can be described thus: Legumain assay (enzymatic cleavage of prodrug). Particulars: recombinant human legumain, rh legumain 1 ng/μl, 50 mM MES buffer, 250 mM NaCl, pH 5.0, read-out: half-life of legumain cleavage to the target compound (converted). It counts as biochemical. Here is the method:
The legumain assay was conducted with recombinant human enzyme. The rh legumain enzyme solution (catalogue #2199-CY, R&D Systems) was diluted to the desired concentration in 50 mM Na acetate buffer/100 mM NaCl, pH4.0 and preincubated at 37° C. for 2 h. rh legumain was then adjusted to a final concentration of 1 ng/μl in 50 mM MES buffer, 250 mM NaCl, pH 5.0. For every legumain-cleavable prodrug to be examined, a mixture was made up in a micro reaction vessel (0.5 ml, from Eppendorf). For this purpose, the substrate solution was adjusted to the desired concentration (double concentration) with 50 mM MES buffer, 250 mM NaCl, pH 5.0. For the kinetic measurement of the enzymatic reaction, 250 μl of the legumain solution were first initially charged and the enzyme reaction was started by adding 250 μl of the substrate solution (final concentration: single concentration). At different times, 50 μL samples were taken. This sample was admixed immediately with 100 μl of ice-cold methanol in order to stop the enzymatic reaction and then frozen at −20° C. The times selected for sampling were after 0.5 h, 1 h, 3 h and 24 h. The samples were then analysed by means of RP-HPLC analysis and by LC-MS analysis. The determination of the toxophore released enabled the determination of the half-life t1/2 of the enzymatic reaction. […]

On to `CNC(=O)[C@H](CCN(C(=O)CO)[C@@H](c1cc(-c2cc(F)ccc2F)cn1Cc1ccccc1)C(C)(C)C)NC(=O)[C@H](CC(N)=O)NC(=O)[C@H](C)NC(=O)[C@H](C)NC(=O)Cc1ccncc1` [Compound A, N-(Pyridin-4-ylacetyl)-L-alanyl-L-alanyl-N^1-[(2S)-4-[{(1R)-1-[1-benzyl-4-(2,5-difluorophenyl)-1H-pyrrol-2-yl]-2,2-dimethylpropyl}(glycoloyl)amino]-1-(methylamino)-1-oxobutan-2-yl]-L-aspartamide], for which the half-life is 1.1 h.

One may read the half-life as how long it takes for the measured level to halve.
